In PMC4229968, “The Inhibition of the Components from Shengmai Injection towards UDP-Glucuronosyltransferase” (Evidence-based Complementary and Alternative Medicine : eCAM, 2014):

What was measured:
[1] = target: T1, UGT2B7 (Homo sapiens, UniProt P16662); assay: Recombinant UGT2B7-catalyzed 4-MU glucuronidation inhibition; type: in vitro ADME; conditions: pH 7.4, probe 4-methylumbelliferone (4-MU), UGT2B7, 100 μM of compound, 4-MU substrate, read-out: residual activity
T1 construct: purchased BD Gentest Corp. (Woburn, MA, USA); host or cells: baculovirus-infected insect cells
T1 sequence (P16662 24-529): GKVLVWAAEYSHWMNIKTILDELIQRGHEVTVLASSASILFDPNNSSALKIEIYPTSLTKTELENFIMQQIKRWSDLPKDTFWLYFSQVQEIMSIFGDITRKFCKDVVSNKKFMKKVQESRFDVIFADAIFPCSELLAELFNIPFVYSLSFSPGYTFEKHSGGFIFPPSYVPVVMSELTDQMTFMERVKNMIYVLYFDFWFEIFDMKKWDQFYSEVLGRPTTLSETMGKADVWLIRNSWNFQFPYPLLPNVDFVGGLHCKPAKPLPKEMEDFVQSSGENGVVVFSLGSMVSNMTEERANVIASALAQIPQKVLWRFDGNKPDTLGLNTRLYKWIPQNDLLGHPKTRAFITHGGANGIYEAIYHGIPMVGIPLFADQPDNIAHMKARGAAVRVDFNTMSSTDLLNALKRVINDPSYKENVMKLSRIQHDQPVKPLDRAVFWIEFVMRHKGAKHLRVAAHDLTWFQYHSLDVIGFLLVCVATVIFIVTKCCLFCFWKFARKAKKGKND
Description: (§1) 4-Methylumbelliferone (4-MU), 4-methylumbelliferone-β-D-glucuronide (4-MUG), Tris-HCl, 7-hydroxycoumarin, and uridine-5′-diphosphoglucuronic acid (UDPGA) (trisodium salt) were purchased from Sigma-Aldrich (St. Louis, MO). Recombinant human UGT isoforms (UGT1A1, UGT1A3, UGT1A4, UGT1A6, UGT1A7, UGT1A8, UGT1A9, UGT1A10, UGT2B4, UGT2B7, and UGT2B15) expressed in baculovirus-infected insect cells were obtained from BD Gentest Corp. (Woburn, MA, USA). Ophiopogonin D (OD), ophiopogonin D′ (OD′), methylophiopogonanone A (MA), methylophiopogonanone B (MB), and ruscorectal (RU) were purchased from Sichuan Weikeqi Biotechnology Company (Chengdu, Sichuan, China). The purity of these compounds was above 95%. All other reagents were of HPLC grade or of the highest grade commercially available.
4-MU, the nonspecific probe substrate for all the UGT isoforms except UGT1A4, was used in the present study to initially screen the inhibition potential of maidong's components towards UGT isoforms as previously reported. In brief, the incubation system (total volume = 200 μL) consisted of recombinant UGTs, 5 mM UDPGA, 5 mM MgCl2, 50 mM Tris-HCl (pH = 7.4), and 4-MU in the absence or presence of different concentrations of maidong's components. The compounds were dissolved in DMSO, and the final concentration of DMSO was below 0.5% (v/v). The used incubation time and protein concentration were previously determined to ensure the reaction rate within the linear range. The 4-MU concentration was equal to known K m or S 50 values for each UGT isoform. After 5 min preincubation at 37°C, the incubation reaction was initiated via adding UDPGA to the mixture system. The reactions were quenched by adding 100 μL acetonitrile with 7-hydroxycoumarin (100 μM) as internal standard. Centrifuged at 20000 ×g for 10 min, an aliquot of supernatant was transferred to an autoinjector vial for HPLC analysis. The HPLC system (Shimadzu, Kyoto, Japan) contained a SCL-10A system controller, two LC-10AT pumps, a SIL-10A autoinjector, and a SPD-10AVP UV detector. Chromatographic separation was carried out using a C18 column (4.6 × 200 mm, 5 μm, Kromasil) at a flow rate of 1 mL/min and UV detector at 316 nm. The mobile phase consisted of acetonitrile (A) and H2O containing 0.5% (v/v) formic acid (B). The following gradient condition was used: 0–15 min, 95–40% B; 15–20 min, 10% B; 20–30 min, 95% B.

[2] = target: T2, UGT1A4 (Homo sapiens, UniProt P22310); assay: Recombinant UGT1A4-catalyzed trifluoperazine (TFP) glucuronidation inhibition; type: in vitro ADME; conditions: for activity at 20 min, 100 μM: UGT1A4, 100 μM of compound, TFP substrate (40 μM), read-out: residual activity
T2 construct: purchased BD Gentest Corp. (Woburn, MA, USA); host or cells: baculovirus-infected insect cells
T2 sequence (P22310 29-534): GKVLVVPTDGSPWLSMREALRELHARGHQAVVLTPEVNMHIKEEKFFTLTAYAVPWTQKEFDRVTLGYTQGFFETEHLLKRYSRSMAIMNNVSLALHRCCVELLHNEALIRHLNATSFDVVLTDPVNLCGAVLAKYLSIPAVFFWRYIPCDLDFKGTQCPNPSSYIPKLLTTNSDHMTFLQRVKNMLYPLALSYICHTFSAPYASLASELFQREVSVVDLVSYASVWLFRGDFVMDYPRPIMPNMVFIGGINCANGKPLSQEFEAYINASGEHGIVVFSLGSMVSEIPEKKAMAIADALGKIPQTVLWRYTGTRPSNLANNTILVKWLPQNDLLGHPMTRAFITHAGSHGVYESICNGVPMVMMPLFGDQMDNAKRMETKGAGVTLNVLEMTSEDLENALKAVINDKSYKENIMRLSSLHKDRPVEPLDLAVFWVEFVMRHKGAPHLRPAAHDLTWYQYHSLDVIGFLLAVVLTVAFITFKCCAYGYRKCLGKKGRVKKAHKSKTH
Description: as §1
Therefore, UGT1A4-catalyzed trifluoperazine (TFP) glucuronidation was carried out to evaluate inhibition of maidong's components towards UGT1A4 activity. As previously reported, TFP (40 μM, near its K m value) was incubated with 0.1 mg/mL recombinant UGT1A4 for 20 min in the presence or absence of maidong's ingredients.
To determine the inhibition kinetic type and parameters (K i), the reaction velocity (V) was determined at multiple concentrations of maidong's components and 4-MU (or TFP). Dixon plot and Lineweaver-Burk plot were used to fit the data. The inhibition kinetic type was evaluated through determining the intersection point in the Dixon and Lineweaver-Burk plots.
K m value is the substrate concentration in which the velocity reached half of the maximum velocity (V max) of the reaction. K i value is the inhibition constant.

[3] = human, probe trifluoperazine (TFP)

| SMILES | activity at 100 µM [1] | activity at 20 min, 100 μM [2, 3] | inhibition type ([2]; UGT1A4, TFP glucuronidation, Dixon and Lineweaver-Burk plots) | Ki ([2]; UGT1A4-catalyzed TFP glucuronidation, read-out: inhibition kinetic parameter (Ki)) | inhibition at 20 min, 100 µM ([2]; human, probe trifluoperazine (TFP), 40 μM, UGT1A4, at 100 μM, read-out: inhibition percent) |
| --- | --- | --- | --- | --- | --- |
| Cc1c(O)c(C)c2c(c1O)C(=O)[C@H](Cc1ccc3c(c1)OCO3)CO2 [MA, methylophiopogonanone A] | 23.3 ± 16.7% | 70.4 ± 3.8% | – | – | – |
| COc1ccc(C[C@@H]2COc3c(C)c(O)c(C)c(O)c3C2=O)cc1 [MB, methylophiopogonanone B] | 82.8 ± 14.5% | 81.1 ± 8% | – | – | – |
| C[C@@H]1CC[C@@]2(OC1)O[C@H]1C[C@H]3[C@@H]4CC=C5C[C@@H](O)C[C@@H](O[C@@H]6O[C@H](C)[C@H](O)[C@H](O[C@@H]7OC[C@@H](O)[C@H](O)[C@H]7O)[C@H]6O[C@@H]6O[C@@H](C)[C@H](O)[C@@H](O)[C@H]6O)[C@]5(C)[C@H]4CC[C@]3(C)[C@H]1[C@@H]2C [OD, ophiopogonin D] | 85.4 ± 7.3% | 24.6 ± 1.6% | – | – | – |
| C[C@@H]1CC[C@@]2(OC1)O[C@H]1C[C@H]3[C@@H]4CC=C5C[C@@H](O[C@@H]6O[C@H](CO)[C@@H](O)[C@H](O[C@@H]7OC[C@@H](O)[C@H](O)[C@H]7O)[C@H]6O[C@@H]6O[C@@H](C)[C@H](O)[C@@H](O)[C@H]6O)CC[C@]5(C)[C@H]4CC[C@]3(C)[C@H]1[C@@H]2C [OD′, ophiopogonin D′] | 77.4 ± 7.1% | 21 ± 1.6% | – | – | – |
| CC1CCC2(OC1)OC1CC3C4CC=C5CC(O)CC(O)C5(C)C4CCC3(C)C1C2C (stereo not shown) [RU, ruscorectal] | 125 ± 59% | 0% | competitive inhibition | 20 nM | ~100% |
